According to patent publication US6986881B1, “Identification of compounds that modify transcriptional responses to hypoxia” (Dana-Farber Cancer Institute, Inc., priority 1999, dated 2006):
No end group written: not given here.

Columns and labels:
HepG2 cells = assay: Cell death by flow cytometry (Annexin V staining and vital dye exclusion); assay type: cell-based; conditions: for cell survival: versus Gal4 alone
Procedure: FIG. 2D is a graph showing the levels of cell death in an experiment in which HepG2 cells were infected at an MOI of 5 with retrovirus encoding the indicated Gal4 fusion proteins. Cells were exposed to either ambient or 1% oxygen for 36 hours, and then assayed for cell death by flow cytometric analysis using Annexin V staining and vital dye exclusion. The results are expressed as the mean of three independent experiments ±S.E.M. The asterisk denotes statistical significance (p=0.05) in comparison to controls.
(§1) Hypoxia. Hypoxia was achieved by incubating cells in a humidified environment at 37° C. in a Cellstar three gas incubator (Harris) maintained at 10% CO2 and 1% O2. Accurate O2 and CO2 regulation was periodically verified with a Fryrite gas analyzer (Bacharach).
(§2) Cell culture and retroviral infection. Tumor cell lines were obtained from the ATCC, and were cultured in DMEM supplemented with 10% FBS, penicillin, streptomycin, and L-glutamine (Gibco-BRL). Cells in logarithmic growth phase were serially infected 12 hours apart with VSV-G pseudotyped pMMP-Gal4 retroviruses to achieve a final MOI of 5 or 10, depending on the experiment. […] For pBABE-puro-VP16 or pBABE-puro-HIF-VP16, cells were infected at an MOI of <1 and selected with puromycin (2 μg/ml) for 4 days. Cells were allowed to recover for 1 day and then infected at an MOI of 5 with pMMP-Gal4 retroviruses.
(§3) Immunoblot, ribonzuclease protection, and cell death assays. Immunoblot analyses for Gal4 (RK5C1, Santa Cruz Biotechnology), p53 (DO-1, Oncogene Research), and HIF-1α (OZ15 (Arany et al., Proc. Natl. Acad. Sci. U.S.A. 93:12969–12973, 1996)) were performed using standard techniques (Ausubel et al., Eds., Current Protocols in Molecular Biology (Wiley-Interscience, New York, 1988)). Total RNA was isolated (RNeasy, Qiagen), and ribonuclease protection assays performed utilizing a multiprobe human angiogenesis kit (RiboQuant, Pharmingen) according to the manufacturer's instructions. Cell death was measured by staining with anti-Annexin V antibody (Pharmingen) and 7-amino-actinomycin D (Pharmingen), and analyzed by flow cytometry according to the manufacturer's instructions.

RAR = assay: Gal4-luciferase reporter, p300/CBP dependent transactivation (Gal4-RAR); assay type: cell-based; conditions: TAD-C polypeptide overexpression, Hep3B cells
Procedure: (§4) FIG. 2B is a graph showing the effect of TAD-C expression on p300/CBP dependent transactivation. Hep3B cells were cotransfected with the indicated thioredoxin-constrained fusion protein expression plasmids (300 ng), the indicated Gal4-fusion proteins (20 ng), Gal4-luciferase reporter (100 ng), and pCMV-LacZ (50 ng). Where indicated, cells were exposed to hypoxia for 18 hours. The results are expressed as corrected RLU (mean of three independent transfections ±S.D.).
(§5) Reporter assays. Luciferase and β-galactosidase assays were performed as previously described (Bhattacharya et al., Genes Dev. 13:64–75, 1999). In all cases, luciferase activity was corrected for β-galactosidase activity as an internal control for transfection efficiency and global changes in transcriptional activity. Results are expressed as corrected relative light units (RLU). For each reporter experiment, at least two independent experiments were performed.

[1] = system: Hep3B cells, Epo-luciferase reporter; assay: Epo-luciferase hypoxia-inducible reporter assay; assay type: cell-based; conditions: overproduction of polypeptide; 1% oxygen 18 hours
Procedure: FIG. 2A is a graph showing the results of luciferase and β-galactosidase assays, in which Hep3B cells were cotransfected with an Epo-luciferase reporter (100 ng), pCMV-LacZ (100 ng), and the indicated expression plasmids (300 ng). Cells were subsequently exposed to either ambient (Normoxia, stippled bars) or 1% (Hypoxia, solid bars) oxygen for 18 hours prior to assay. The results are expressed as corrected relative light units (RLU, mean of three independent transfections ±S.D.).
as §5, §1

STAT2 = assay: Gal4-luciferase reporter, p300/CBP dependent transactivation (Gal4-STAT2); assay type: cell-based; conditions: TAD-C polypeptide overexpression, Hep3B cells
Procedure: as §4, §5

HIF-1α = assay: Immunoblot for HIF-1α abundance; assay type: cell-based; conditions: hypoxic conditions
Procedure: as §3

SREBP2 = assay: Gal4-luciferase reporter, p300/CBP dependent transactivation (Gal4-SREBP2); assay type: cell-based; conditions: TAD-C polypeptide overexpression, Hep3B cells
Procedure: as §4, §5

VEGF mRNA in HepG2 cells = assay: Ribonuclease protection assay for VEGF mRNA; assay type: cell-based; conditions: HepG2, retrovirus MOI 10, both normoxic and hypoxic conditions
Procedure: In this assay, HepG2 cells were infected at an MOI of 10 with retroviruses encoding Gal4 alone or Gal4 fused with wild type or mutant (MUT) TAD-C polypeptide. Cells were exposed to either ambient or 1% (Hypoxia) oxygen for 18 hours prior to preparation of total RNA.
To facilitate expression of the relevant TAD-C and mutant polypeptides, VSV-G pseudotyped retroviruses were engineered to express Gal14 carrier protein alone or Gal4 fused to either wild type or mutant TAD-C polypeptide. HepG2 cells were infected with these retroviruses at a multiplicity of infection (MOI) of 10, exposed to either normal or hypoxic conditions, and VEGF mRNA levels were determined by a ribonuclease protection assay. Equivalent expression of Gal4 and the Gal4 fused polypeptides was regularly achieved in this and related experiments (for example, see FIG. 3A, inset). […] The overall abundance of HIF-1α under hypoxic conditions was not altered by introduction of TAD-C.
Hypoxia. Hypoxia was achieved by incubating cells in a humidified environment at 37° C. in a Cellstar three gas incubator (Harris) maintained at 10% CO2 and 1% O2. […]
Immunoblot, ribonzuclease protection, and cell death assays. […] Cell death was measured by staining with anti-Annexin V antibody (Pharmingen) and 7-amino-actinomycin D (Pharmingen), and analyzed by flow cytometry according to the manufacturer's instructions.

[2] = target: T1, GST-CH1 (amino acids 302–443 of p300) (Homo sapiens, UniProt Q09472); assay: In vitro protein binding assay of IVT Gal4-fused HIF-1α fragments to GST-CH1; conditions: Gal4 fusion, translated in vitro
T1 construct: made in house; host or cells: bacteria
T1 sequence (Q09472 302-443): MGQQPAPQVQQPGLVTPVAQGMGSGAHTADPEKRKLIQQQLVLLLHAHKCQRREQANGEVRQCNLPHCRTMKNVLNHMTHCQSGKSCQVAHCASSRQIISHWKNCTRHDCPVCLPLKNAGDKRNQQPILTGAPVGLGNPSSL
Description: One fifth of the total IVT product used for each binding assay is indicated (Input), along with the amount bound by GST-CH1 (Bound).
The detailed structural requirements for p300/CBP binding to HIF-1α were mapped by in vitro assays utilizing a series of GST-fused deletion mutants centered around the CH1 domain of p300, the primary HIF-1α interacting unit of that protein (Arany et al., Proc. Natl. Acad. Sci. U.S.A. 93:12969–12973, 1996; Kallio et al., EMBO J. 17:6573–6586, 1998). These mutant fusion proteins were assayed for binding to full length, iii vitro translated HIF-1α a zinc-dependent process (FIG. 1B). […] To map the minimal p300-binding domain of HIF-1α, a series of Gal4-fused truncation mutants of the C-terminus were generated. These Gal4 fusion proteins were translated in vitro and probed for their ability to bind to GST-CH1 (amino acids 302–443).
In vitro translation and in vitro protein binding assays. Except where noted, all reagents were from Sigma. In vitro transcription/translation (IVT) was performed in the presence of ^35S-methionine (NEN) using T3 or T7 polymerase coupled with rabbit reticulocyte lysates (TNT, Promega) according to the manufacturer's instructions. GST fusion proteins were produced in, and purified from, bacteria, and binding of IVT proteins was performed as previously described (Grossman et al., Mol. Cell. 2:405–415, 1998). […]

MDA-MB435S cells = assay: Nude mouse xenograft tumor model, MDA-MB435S; assay type: in vivo, nude mice; conditions: MDA-MB435S cells expressing the polypeptide, versus Gal4 alone or Gal4-mutant
Procedure: FIG. 3B is a graph showing results of the experiments described in reference to FIG. 3A for MDA-MB435S cells.
as §2
Xenograft tumor model. Nude mice (Taconic) were obtained at 6–8 weeks of age and allowed to acclimate for 1 week prior to tumor implantation. Tumor cells were allowed to recover for at least 48 hours after retroviral infection prior to implantation into nude mice. The indicated number of tumor cells was injected subcutaneously and bilaterally into the flanks of mice. Tumors were measured with calipers, and tumor volume was calculated as 0.5×L×W^2. For each cell line, at least two independent experiments were performed. […]

HCT116 cells = assay: Nude mouse xenograft tumor model, HCT116; assay type: in vivo, nude mice; conditions: for histological examination of the injection site / tumor: HCT116, 3 weeks of growth
Description: FIG. 3A is a graph showing the in vivo effect of TADC expression. HCT116 cells were infected at an MOI of 5 with retroviruses encoding Gal4 alone (circle), Gal4 fused with mutant TAD-C polypeptide (Gal4-MUT, square) or with wild type TAD-C polypeptide (triangle). A total of 4×10^6 cells were implanted subcutaneously into nude mice. The results are expressed as the mean ±S.D. of 8–10 independent tumors.
FIGS. 4A and 4B are a series of photographs showing that the in vivo effect of TAD-C expression can be rescued by a CH1-independent HIF-1α allele. Tumors arising from HCT116 cells infected with retrovirus encoding Gal4 fused with mutant (MUT) or wild type TAD-C polypeptide at an MOI of 5 were excised after 3 weeks of growth. Paraffin sections were stained with H&E or immunostained for Gal4 or CD31/PECAM. The subcutaneous tissue (SQ), tumor (Tum), and necrotic areas (Nec) are indicated.
FIG. 4C is a graph showing the results of experiments in which HCT116 cells were infected with either pBABE-puro-VP16 (VP16) or pBABE-puro-HIF-VP16 (HIFVP), and selected with puromycin. These cells were then infected with retrovirus encoding either Gal4-MUT or Gal4-TADC at an MOI of 5. A total of 6×10^6 cells were implanted in nude mice. Results are the mean of 8 independent tumors ±S.D.
as §2
Xenograft tumor model. Nude mice (Taconic) were obtained at 6–8 weeks of age and allowed to acclimate for 1 week prior to tumor implantation. Tumor cells were allowed to recover for at least 48 hours after retroviral infection prior to implantation into nude mice. The indicated number of tumor cells was injected subcutaneously and bilaterally into the flanks of mice. Tumors were measured with calipers, and tumor volume was calculated as 0.5×L×W^2. For each cell line, at least two independent experiments were performed. Where indicated, tumors were excised and fixed in 4% paraformaldehyde in phosphate buffered saline or minced and lysed in RIPA/300 buffer (50 mM Tris-HCl (pH 8.0), 300 mM NaCl, 1% NP40, 0.5% DOC, 0.1% SDS, 1 mM DTT, protease inhibitors). Immunostaining with anti-Gal4 (IKE, Santa Cruz Biotechnology) or anti-CD31 (MEC13.3, Pharmingen) was performed using the Vectastain ABC Elite system (Vector) according to the manufacturer's instructions.

SRC-1 = assay: Gal4-luciferase reporter, p300/CBP dependent transactivation (Gal4-SRC1); assay type: cell-based; conditions: TAD-C polypeptide overexpression, Hep3B cells
Procedure: as §4, §5

[3] = target: HIF-1α/p300 CH1 interaction (Homo sapiens, UniProt Q09472); conditions: cited from earlier work
Chain of HIF-1α/p300 CH1 interaction (Q09472 whole entry): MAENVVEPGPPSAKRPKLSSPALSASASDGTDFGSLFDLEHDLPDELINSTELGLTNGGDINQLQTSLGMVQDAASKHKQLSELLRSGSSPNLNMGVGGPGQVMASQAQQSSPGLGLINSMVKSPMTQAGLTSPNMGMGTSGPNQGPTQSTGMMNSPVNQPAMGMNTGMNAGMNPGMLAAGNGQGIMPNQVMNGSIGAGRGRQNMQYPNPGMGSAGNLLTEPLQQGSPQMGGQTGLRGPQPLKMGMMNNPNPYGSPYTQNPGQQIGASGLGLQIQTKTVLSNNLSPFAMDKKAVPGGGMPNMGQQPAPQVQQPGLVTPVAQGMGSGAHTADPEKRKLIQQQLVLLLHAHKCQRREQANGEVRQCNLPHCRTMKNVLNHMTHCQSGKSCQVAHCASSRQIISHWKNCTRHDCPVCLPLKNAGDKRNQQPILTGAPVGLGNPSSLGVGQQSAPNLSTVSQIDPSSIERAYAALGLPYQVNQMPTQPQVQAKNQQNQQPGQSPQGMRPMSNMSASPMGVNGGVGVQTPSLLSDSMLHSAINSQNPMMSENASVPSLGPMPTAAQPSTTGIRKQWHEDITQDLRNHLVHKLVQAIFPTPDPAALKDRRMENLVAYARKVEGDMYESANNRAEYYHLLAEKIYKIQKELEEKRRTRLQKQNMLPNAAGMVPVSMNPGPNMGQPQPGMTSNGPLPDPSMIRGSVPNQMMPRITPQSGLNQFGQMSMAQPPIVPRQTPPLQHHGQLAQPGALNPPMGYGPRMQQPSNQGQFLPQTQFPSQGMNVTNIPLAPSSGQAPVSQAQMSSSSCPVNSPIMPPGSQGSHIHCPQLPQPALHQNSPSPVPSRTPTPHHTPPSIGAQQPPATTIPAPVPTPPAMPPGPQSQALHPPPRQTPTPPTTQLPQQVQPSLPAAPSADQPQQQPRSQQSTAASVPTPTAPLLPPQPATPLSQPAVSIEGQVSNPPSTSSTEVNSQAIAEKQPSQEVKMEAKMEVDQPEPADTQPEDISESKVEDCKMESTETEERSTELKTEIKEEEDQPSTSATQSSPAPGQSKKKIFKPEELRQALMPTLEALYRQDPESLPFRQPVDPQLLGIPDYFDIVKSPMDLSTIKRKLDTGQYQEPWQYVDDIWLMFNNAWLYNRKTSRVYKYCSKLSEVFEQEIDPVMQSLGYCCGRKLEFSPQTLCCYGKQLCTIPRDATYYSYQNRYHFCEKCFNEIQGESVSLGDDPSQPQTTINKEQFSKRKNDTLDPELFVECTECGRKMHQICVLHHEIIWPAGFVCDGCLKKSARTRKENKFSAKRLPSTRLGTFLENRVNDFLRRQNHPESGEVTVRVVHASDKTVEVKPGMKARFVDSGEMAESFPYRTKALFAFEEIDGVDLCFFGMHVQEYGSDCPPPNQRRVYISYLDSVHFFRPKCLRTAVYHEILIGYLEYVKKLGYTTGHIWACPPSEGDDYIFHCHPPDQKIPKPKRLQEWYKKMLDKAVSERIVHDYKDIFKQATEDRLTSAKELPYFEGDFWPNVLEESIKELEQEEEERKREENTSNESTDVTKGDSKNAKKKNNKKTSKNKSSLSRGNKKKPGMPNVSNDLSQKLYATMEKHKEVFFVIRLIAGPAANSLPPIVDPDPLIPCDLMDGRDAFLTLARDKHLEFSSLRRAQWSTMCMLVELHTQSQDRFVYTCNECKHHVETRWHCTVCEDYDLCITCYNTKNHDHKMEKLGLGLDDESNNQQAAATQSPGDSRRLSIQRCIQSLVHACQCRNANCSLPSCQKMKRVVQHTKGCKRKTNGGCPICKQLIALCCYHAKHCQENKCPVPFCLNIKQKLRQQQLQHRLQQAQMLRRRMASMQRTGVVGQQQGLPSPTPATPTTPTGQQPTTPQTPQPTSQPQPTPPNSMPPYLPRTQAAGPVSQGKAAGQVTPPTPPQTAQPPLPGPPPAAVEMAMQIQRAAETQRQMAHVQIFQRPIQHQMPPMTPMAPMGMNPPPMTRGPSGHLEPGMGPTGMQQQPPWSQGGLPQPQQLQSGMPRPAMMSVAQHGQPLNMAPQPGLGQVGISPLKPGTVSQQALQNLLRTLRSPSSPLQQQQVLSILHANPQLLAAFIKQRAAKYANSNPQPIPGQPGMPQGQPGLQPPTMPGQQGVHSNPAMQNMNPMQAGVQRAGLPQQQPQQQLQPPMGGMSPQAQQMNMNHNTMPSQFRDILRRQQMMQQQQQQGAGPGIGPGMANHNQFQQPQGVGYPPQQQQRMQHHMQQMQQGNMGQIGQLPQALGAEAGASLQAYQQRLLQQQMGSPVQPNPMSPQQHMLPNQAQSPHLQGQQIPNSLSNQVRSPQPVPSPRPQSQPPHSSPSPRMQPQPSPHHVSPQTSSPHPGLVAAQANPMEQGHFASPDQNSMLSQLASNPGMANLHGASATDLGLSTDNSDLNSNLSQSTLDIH

TAD-C polypeptide: wild type TAD-C polypeptide (amino acids 786–826 of HIF-1α), expressed fused to Gal4 or thioredoxin-constrained
cell death (HepG2 cells; HepG2, hypoxic conditions (1% oxygen, 36 hours), versus Gal4 alone or mutant): slightly, but significantly, increased
cell growth (HepG2 cells; HepG2, normoxic conditions): not affected
cell survival (HepG2 cells; HepG2, normoxic conditions): essentially the same
effect on RAR transcriptional activity (RAR): no effect
hypoxia-inducible reporter activity [1]: attenuation
transcriptional activity of STAT2 (STAT2): inhibit
overall abundance of HIF-1α (HIF-1α): not altered
effect on SREBP2 transcriptional activity (SREBP2): no effect
VEGF mRNA abundance (VEGF mRNA in HepG2 cells): reproducibly diminished
binding to GST-CH1 [2]: necessary and sufficient for binding
tumor growth (MDA-MB435S cells): significantly and reproducibly attenuated
histological examination of the injection site / tumor (HCT116 cells): large areas of central necrosis with a small rim of viable tumor cells
tumor growth (HCT116 cells; HCT116, coexpression of HIF-VP16, TAD-C versus mutant polypeptide): identical tumor growth
tumor growth (HCT116 cells; HCT116, coexpression of unfused VP16, versus mutant polypeptide): attenuated
tumor growth (HCT116 cells; HCT116 cells expressing the polypeptide, versus Gal4 alone or Gal4-mutant): significantly and reproducibly attenuated
effect on SRC-1 transcriptional activity (SRC-1): no effect

mutant TAD-C polypeptide: eight residue truncated mutant of TAD-C (amino acids 786–818 of HIF-1α), unable to bind GST-CH1 (SMDESGLPQLTSYDCEVNAPIQGSRNLLQGEEL; also: fused to Gal4; UniProt Q16665 786-818, looked up, fragment)
cell survival (HepG2 cells; HepG2, normoxic conditions): essentially the same
hypoxia-inducible reporter activity [1]: failed to exert a dominant-negative effect
binding to GST-CH1 [2]: unable to bind
histological examination of the injection site / tumor (HCT116 cells): small areas of necrosis, but vast areas of viable tumor

CH1: polypeptide corresponding to the minimal HIF-1α binding domain of p300 (CH1 domain, amino acids 302–418)
hypoxia-inducible reporter activity [1]: attenuation

B1: p35srj: protein with negative regulatory function on the HIF-1 pathway; binds p300/CBP, blocks HIF-1α/p300 CH1 interaction (protein, UniProt Q99967 1-270, looked up)
Cbp/p300-interacting …: MADHMMAMNHGRFPDGTNGLHHHPAHRMGMGQFPSPHHHQQQQPQHAFNALMGEHIHYGAGNMNATSGIRHAMGPGTVNGGHPPSALAPAARFNNSQFMGPPVASQGGSLPASMQLQKLNNQYFNHHPYPHNHYMPDLHPAAGHQMNGTNQHFRDCNPKHSGGSSTPGGSGGSSTPGGSGSSSGGGAGSSNSGGGSGSGNMPASVAHVPAAMLPPNVIDTDFIDEEVLMSLVIEMGLDRIKELPELWLGQNEFDFMTDFVCKQQPSRVSC
HIF-1 transactivation [3]: inhibits
